{
  "source": "the OligoGym collection",
  "note": "These antisense oligonucleotides have a phosphorothioate backbone; sugars and methylation of C are not fully specified. Further: test concentration or dose not given here.",
  "data": [
    {"target": "AKT2", "conditions": "ASO", "values": [
      {"sequence": "ACCAGGATGACTTTGCCA", "remaining target (mRNA or protein) (fraction of control)": 0.25},
      {"sequence": "ACTCCATCACAAAGCACA", "remaining target (mRNA or protein) (fraction of control)": 0.2},
      {"sequence": "ACTGTGTGAGCGACTTCA", "remaining target (mRNA or protein) (fraction of control)": 0.38},
      {"sequence": "AGTTGATGCTGAGGAAGA", "remaining target (mRNA or protein) (fraction of control)": 0.51},
      {"sequence": "ATGACAAAGGTGTTGGGT", "remaining target (mRNA or protein) (fraction of control)": 0.29},
      {"sequence": "ATGACCTCCTTGGCATCG", "remaining target (mRNA or protein) (fraction of control)": 0.18},
      {"sequence": "ATGATGACTTCCTTTCGC", "remaining target (mRNA or protein) (fraction of control)": 0.43},
      {"sequence": "CAAGGAGTTTGAGATAGT", "remaining target (mRNA or protein) (fraction of control)": 0.36},
      {"sequence": "CAGTCGTGGAGGAGTCAC", "remaining target (mRNA or protein) (fraction of control)": 0.42},
      {"sequence": "CCAATGAAGGAGCCGTCG", "remaining target (mRNA or protein) (fraction of control)": "≥ 1"},
      {"sequence": "CCAGCCTTCTTTGATGAC", "remaining target (mRNA or protein) (fraction of control)": 0.25},
      {"sequence": "CCCGCTCCTCTGTGAAGA", "remaining target (mRNA or protein) (fraction of control)": 0.08},
      {"sequence": "CCGCATCCACTCCTCCCT", "remaining target (mRNA or protein) (fraction of control)": 0.12},
      {"sequence": "CCGCTGCTTGAGGCTGTT", "remaining target (mRNA or protein) (fraction of control)": 0.29},
      {"sequence": "CGTGCGTCCTCTGCGTGG", "remaining target (mRNA or protein) (fraction of control)": 0.14}
    ]},
    {"target": "IL1R1", "conditions": "ASO", "values": [
      {"sequence": "AACTTCTCCATGCTACCCGA", "remaining target (mRNA or protein) (fraction of control)": 0.75},
      {"sequence": "AGATGCCTTGCGTTGGCTGC", "remaining target (mRNA or protein) (fraction of control)": 0.5},
      {"sequence": "AGGGCTGCGGCGGCTCCACT", "remaining target (mRNA or protein) (fraction of control)": 0.75},
      {"sequence": "AGTAACACTTTCATATTCTT", "remaining target (mRNA or protein) (fraction of control)": 0.75},
      {"sequence": "AGTCAAAGGAAGTTCACGGG", "remaining target (mRNA or protein) (fraction of control)": 0.5},
      {"sequence": "AGTCCTCCGTCTCCTGCAAC", "remaining target (mRNA or protein) (fraction of control)": 0.75},
      {"sequence": "AGTGCTACGGTGCGGGCGCG", "remaining target (mRNA or protein) (fraction of control)": 0.75},
      {"sequence": "CACCGAGGAGCAGGCGCGGC", "remaining target (mRNA or protein) (fraction of control)": 0.75},
      {"sequence": "CACTGCAACCTCCGTCTCCC", "remaining target (mRNA or protein) (fraction of control)": 0.75},
      {"sequence": "CACTTAGCCGTGCGTTGGTG", "remaining target (mRNA or protein) (fraction of control)": 0.5},
      {"sequence": "CATAACCTGGCCTGCAACGC", "remaining target (mRNA or protein) (fraction of control)": 0.75},
      {"sequence": "CATTCCATGAACTCTGCAAG", "remaining target (mRNA or protein) (fraction of control)": 0.75},
      {"sequence": "CATTCCTGCCGCTCCCTGGG", "remaining target (mRNA or protein) (fraction of control)": 0.75},
      {"sequence": "CCCTTCCATAAATGAACAGC", "remaining target (mRNA or protein) (fraction of control)": 0.75},
      {"sequence": "CCCTTGGGCTGTGGATGACT", "remaining target (mRNA or protein) (fraction of control)": 0.75},
      {"sequence": "CCTCCACCCACGCTTATCCA", "remaining target (mRNA or protein) (fraction of control)": 0.29},
      {"sequence": "CCTCCAGGGCTGCGGCGGCT", "remaining target (mRNA or protein) (fraction of control)": 0.75},
      {"sequence": "CGCGCTCGGCTCCTCCCGGC", "remaining target (mRNA or protein) (fraction of control)": 0.75},
      {"sequence": "CGTGCCAGTGTGGAGTGAGG", "remaining target (mRNA or protein) (fraction of control)": 0.23},
      {"sequence": "CTCTCCACCGAGGAGCAGGC", "remaining target (mRNA or protein) (fraction of control)": 0.75},
      {"sequence": "CTTGGAGAAGGCCTTGTCTT", "remaining target (mRNA or protein) (fraction of control)": 0.75},
      {"sequence": "CTTTCATATTCTTCTTGGAG", "remaining target (mRNA or protein) (fraction of control)": 0.75},
      {"sequence": "GAAACAAATAAGTCTGAGTA", "remaining target (mRNA or protein) (fraction of control)": 0.75},
      {"sequence": "GCAAAGCGGGCCCAGGAGAA", "remaining target (mRNA or protein) (fraction of control)": 0.3},
      {"sequence": "GCAACGCCATAAGACAGGAG", "remaining target (mRNA or protein) (fraction of control)": 0.75},
      {"sequence": "GCCACCACAGCCTCTCCCTC", "remaining target (mRNA or protein) (fraction of control)": 0.42},
      {"sequence": "GCGGGATGACAGAAGAGCGG", "remaining target (mRNA or protein) (fraction of control)": 0.75},
      {"sequence": "GGAACTGCCTTTCGCGGTCT", "remaining target (mRNA or protein) (fraction of control)": 0.75},
      {"sequence": "TACCCGAGAGGCACGTGAGC", "remaining target (mRNA or protein) (fraction of control)": 0.75},
      {"sequence": "TCGGCTCCTCCCGGCCGCGC", "remaining target (mRNA or protein) (fraction of control)": 0.75},
      {"sequence": "TCTGAGTAACACTTTCAT", "remaining target (mRNA or protein) (fraction of control)": 0.75},
      {"sequence": "TCTGGCATTTTCTCATAGTC", "remaining target (mRNA or protein) (fraction of control)": 0.75},
      {"sequence": "TCTTCAGAGGGTGCGTCTAC", "remaining target (mRNA or protein) (fraction of control)": 0.75},
      {"sequence": "TGATCCGTGATGCATGCTGT", "remaining target (mRNA or protein) (fraction of control)": 0.5},
      {"sequence": "TGCCTTTCGCGGTCTCGCTC", "remaining target (mRNA or protein) (fraction of control)": 0.75},
      {"sequence": "TGGTGACCTCAGGGATAAAG", "remaining target (mRNA or protein) (fraction of control)": 0.75},
      {"sequence": "TGTGTCCTGCAATCGGTGGC", "remaining target (mRNA or protein) (fraction of control)": 0.1}
    ]},
    {"target": "SELE", "conditions": "ASO", "values": [
      {"sequence": "TGAAGTCAGCCAAGAACAGCT", "remaining target (mRNA or protein) (fraction of control)": 0.08},
      {"sequence": "TTCCCCAGATGCACCTGTTT", "remaining target (mRNA or protein) (fraction of control)": 0.02}
    ]}
  ]
}
